Results reported in BindingDB's records for doi:10.1021/jm00105a058 (J. Uriach & Cía., 1991).

Experiment: Inhibitory activity expressed as the concentration required to inhibit platelet-activating factor (PAF) induced maximum aggregation by 50%

| IC50 | SMILES |
| --- | --- |
| 0.0082 µM | CCCCCCCCCCCCCCCCOCC1COC(COC(=O)N(Cc2cccc[n+]2CC)C(C)=O)C1 (stereo not given) |
| 0.015 µM | CCCCCCCCCCCCCCCCOCC1COC(COC(=O)N(Cc2cccc[n+]2CC)C(C)=O)O1 (stereo not given) [2-{[Acetyl-(4-hexadecyloxymethyl-[1,3]dioxolan-2-ylmethoxycarbonyl)-amino]-methyl}-1-ethyl-pyridinium; chloride] |

Experiment: as above
Remark: another data set of the same source

| IC50 | SMILES |
| --- | --- |
| 0.083 µM | CCCCCCCCCCCCCCCCOCC1OCC(COC(=O)N(Cc2cccc[n+]2CC)C(C)=O)O1 (stereo not given) |
| 8 µM | CCCCCCCCCCCCCCCCCCOCC1COC(COC(=O)NCc2cc[n+](CC)cc2)C1 (stereo not given) |
| 0.018 µM | CCCCCCCCCCCCCCCCOCC1COC(COC(=O)N(Cc2cccc[n+]2CC)C(C)=O)C1 (stereo not given) |
| 1.4 µM | CCCCCCCCCCCCCCOCC1COC(COCCCCCC[n+]2ccsc2)C1 (stereo not given) |
| 0.14 µM | CCCCCCCCCCCCCCCCCCOCC1OCC(COC(=O)N(Cc2cccc[n+]2CC)C(C)=O)O1 (stereo not given) |
| 0.085 µM | CCCCCCCCCCCCCCOCC1COC(COC(=O)N(Cc2cccc[n+]2CC)C(C)=O)C1 (stereo not given) |
| 9.2 µM | CCCCCCCCCCCCCCCCCCOCC1COC(COC(=O)CCCCC[n+]2ccsc2)C1 (stereo not given) |
| 3.6 µM | CCCCCCCCCCCCCCCCOCC1COC(COC(=O)CCCCC[n+]2ccsc2)C1 (stereo not given) |
| 2.8 µM | CCCCCCCCCCCCCCCCOCC1COC(COC(=O)NCCc2cccc[n+]2CC)C1 (stereo not given) |
| 0.094 µM | CCCCCCCCCCCCCCCCCCOCC1COC(COC(=O)N(Cc2cccc[n+]2CC)C(C)=O)O1 (stereo not given) |
| 2.6 µM | CCCCCCCCCCCCCCCCOCC1COC(COC(=O)N(CCc2cccc[n+]2CC)C(C)=O)C1 (stereo not given) |
| 0.11 µM | CCCCCCCCCCCCCCOCC1COC(COC(=O)N(Cc2cccc[n+]2CC)C(C)=O)O1 (stereo not given) |
| 0.08 µM | CCCCCCCCCCCCCCCC1CCC(COC(=O)N(Cc2cccc[n+]2CC)C(C)=O)O1 (stereo not given) |
| 1.6 µM | CCCCCCCCCCCCCCCCCCOCC1COC(COC(=O)N(Cc2cc[n+](CC)cc2)C(C)=O)C1 (stereo not given) |
| 0.071 µM | CCCCCCCCCCCCCCCCCC1CCC(COC(=O)N(Cc2cccc[n+]2CC)C(C)=O)O1 (stereo not given) |
| 0.14 µM | CCCCCCCCCCCCCCC1COC(COC(=O)N(Cc2cccc[n+]2CC)C(C)=O)C1 (stereo not given) |

| IC50 | SMILES |
| --- | --- |
| 0.052 µM | CCCCCCCCCCCCCCCCCCOCC1COC(COC(=O)N(Cc2cccc[n+]2CC)C(C)=O)C1 (stereo not given) |
| 5.3 µM | CCCCCCCCCCCCCCCCOCC1COC(COC(=O)NCc2cccc[n+]2CC)C1 (stereo not given) |
| 0.21 µM | CCCCCCCCCCCCCCCCCC1OCC(COC(=O)N(Cc2cccc[n+]2CC)C(C)=O)O1 (stereo not given) |
| 0.099 µM | CCCCCCCCCCCCCCCCOCC1CCC(COC(=O)N(Cc2cccc[n+]2CC)C(C)=O)O1 (stereo not given) |
| 2.5 µM | CCCCCCCCCCCCCCCCCCOCC1COC(COC(=O)N(Cc2ccc[n+](CC)c2)C(C)=O)C1 (stereo not given) |
| 0.2 µM | CCCCCCCCCCCCCCCCOCC1COC(COC(=O)N(Cc2cccc[n+]2C)C(C)=O)C1 (stereo not given) |
| 1.1 µM | CCCCCCCCCCCCOCC1COC(COCCCCCCC[n+]2ccsc2)C1 (stereo not given) |
| 11 µM | CCCCCCCCCCCCCCCCOCC1COC(COC(=O)N(Cc2ccccn2)C(C)=O)C1 (stereo not given) |
| 2.3 µM | CCCCCCCCCCCCCCCCOCC1COC(COC(=O)N(C(C)=O)c2ccc[n+](CC)c2)C1 (stereo not given) |
| 0.024 µM | CCCCCCCCCCCCCCCCCC1COC(COC(=O)N(Cc2cccc[n+]2CC)C(C)=O)O1 (stereo not given) |
| 0.86 µM | CCCCCCCCCCCCCCCCOCC1COC(COC(=O)N(C(C)=O)c2cc[n+](CC)cc2)C1 (stereo not given) |
| 0.47 µM | CCCCCCCCCCCCCCCCCCC1COC(COC(=O)N(Cc2cccc[n+]2CC)C(C)=O)C1 (stereo not given) |
| 1.9 µM | CCCCCCCCCCCCCCCCCCOCC1COC(COC(=O)N=c2ccn(CC)cc2)C1 (stereo not given) |
| 0.073 µM | CCCCCCCCCCCCCCCCOCC1COC(COC(=O)N(Cc2cccc[n+]2CC)C(=O)OCC)C1 (stereo not given) |
| 0.019 µM | CCCCCCCCCCCCCCCCOCC1COC(COC(=O)N(Cc2cccc[n+]2CC)C(C)=O)O1 (stereo not given) [2-{[Acetyl-(4-hexadecyloxymethyl-[1,3]dioxolan-2-ylmethoxycarbonyl)-amino]-methyl}-1-ethyl-pyridinium; chloride] |

Continued, compound first:

| SMILES | IC50 |
| --- | --- |
| CCCCCCCCCCCCCCCCCC1OCC(COCCCCCC[N+]2(C)CCOCC2)O1 (stereo not given) | 10 µM |
| CCCCCCCCCCCCCC1OCC(COC(=O)CCCCC[n+]2ccsc2)O1 (stereo not given) | 20 µM |
| CCCCCCCCCCCCCCC1COC(COCCCCCC[n+]2ccsc2)C1 (stereo not given) | 2.1 µM |
| CCCCCCCCCCCCCCCCCC1OCC(COC(=O)CCCCC[n+]2ccsc2)O1 (stereo not given) | 1.1 µM |
| CCCCCCCCCCCCCCCCCC1OCC(COP(=O)([O-])OCC[n+]2ccccc2)O1 (stereo not given) | > 100 µM |
| CCCCCCCCCCCCCCCCCC1OCC(COCCCCCC[n+]2ccccc2)O1 (stereo not given) | 3 µM |
| CCCCCCCCCCCCCCC1COC(COP(=O)([O-])OCC[n+]2ccccc2)C1 (stereo not given) | > 100 µM |
| CCCCCCCCCCCCCCCCCCOCC1CC(COCCCCCCC[n+]2ccsc2)CO1 (stereo not given) | 3.9 µM |
| CCCCCCCCCCCCCCCC1CCC(COC(=O)CCCCC[n+]2ccsc2)O1 (stereo not given) | 3.1 µM |
| CCCCCCCCCCCCCCC1COC(COP(=O)([O-])OCC[n+]2ccsc2)C1 (stereo not given) | > 100 µM |
| CCCCCCCCCCCCCCC1COC(COC(=O)CCCCC[n+]2ccsc2)C1 (stereo not given) | > 50 µM |
| CCCCCCCCCCCCCCCCCC1OCC(COCCCCCCCC[n+]2ccsc2)O1 (stereo not given) | 3.7 µM |
| CCCCCCCCCCCCCCCCCCOCC1CC(COC(=O)CCCCC[n+]2ccsc2)CO1 (stereo not given) | 1.5 µM |
| CCCCCCCCCCCCCCCCCC1OCC(COCCCCCC[n+]2cccc3ccccc32)O1 (stereo not given) | 2.7 µM |
| CCCCCCCCCCCCCCOCC1COC(COCCCCCCC[n+]2ccsc2)C1 (stereo not given) | 1.7 µM |
| CCCCCCCCCCCCCCCCOCC1OCC(COCCCCCC[n+]2ccsc2)O1 (stereo not given) | 1.3 µM |
| CCCCCCCCCCCCCCCCCC1OCC(COCCCCCC[n+]2ccsc2)O1 (stereo not given) | 1.4 µM |
| CCCCCCCCCCCCCCC1COC(COP(=O)([O-])OCC[N+](C)(C)C)C1 (stereo not given) | > 200 µM |
| CCCCCCCCCCCCCCCC1CCC(COCCCCCC[n+]2ccsc2)O1 (stereo not given) | 1.3 µM |

| SMILES | IC50 |
| --- | --- |
| CCCCCCCCCCCCCCCCCC1OCC(COCCCCCC[n+]2cscc2C)O1 (stereo not given) | 3.1 µM |
| CCCCCCCCCCCCCCCCOCC1OCC(COC(=O)CCCCC[n+]2ccsc2)O1 (stereo not given) | 4.9 µM |
| CCCCCCCCCCCCCCC1COC(COCCCCCCC[n+]2ccsc2)C1 (stereo not given) | 0.83 µM |
| CCCCCCCCCCCCCCCCCC1OCC(COCCCCCC[N+](C)(C)C)O1 (stereo not given) | 2.4 µM |
| CCCCCCCCCCCCCCC1COC(COCCCC[n+]2ccsc2)C1 (stereo not given) | 39 µM |
| CCCCCCCCCCCCCCCCOCC1CC(COCCCCCC[n+]2ccsc2)CO1 (stereo not given) | 1.4 µM |
| CCCCCCCCCCCCCCCCOCC1OCC(COCCCC[n+]2ccsc2)O1 (stereo not given) | 1.2 µM |
| CCCCCCCCCCCCCCCCOCC1COC(COCCCCCC[n+]2ccsc2)C1 (stereo not given) | 0.54 µM |
| CCCCCCCCCCCCCCCCCC1OCC(COCCCC[n+]2ccsc2)O1 (stereo not given) | 6 µM |
| CCCCCCCCCCCCCCCCC1COC(COCCCCCCC[n+]2ccsc2)C1 (stereo not given) | 1.7 µM |
| CCCCCCCCCCCCCCCC1OCC(COC(=O)CCCCC[n+]2ccsc2)O1 (stereo not given) | 3 µM |
| CCCCCCCCCCCCCCCCCC1OCC(COP(=O)([O-])OCC[N+](C)(C)C)O1 (stereo not given) | > 100 µM |
| CCCCCCCCCCCCCCC1COC(COCCCCCCCC[n+]2ccsc2)C1 (stereo not given) | 1.1 µM |
| CCCCCCCCCCCCCCCCCCCC1OCC(COC(=O)CCCCC[n+]2ccsc2)O1 (stereo not given) | 5.5 µM |
| CCCCCCCCCCCCCCC1COC(COCCCCCC[n+]2cccc3ccccc32)C1 (stereo not given) | 1.9 µM |
| CCCCCCCCCCCCCCCCCCOCC1CC(COCCCCC[n+]2ccsc2)CO1 (stereo not given) | 2.1 µM |
| CC1OCC(COC(=O)CCCCC[n+]2ccsc2)O1 (stereo not given) | 150 µM |
| CCCCCCCCCCCCCCC1COC(COCCCCCC[N+](C)(C)C)C1 (stereo not given) | 8.2 µM |
